Molecular target: T1, Dopamine beta hydroxylase (Homo sapiens, UniProt P09172)
T1 construct: 125 μl of plasma; tissue Instituto Português do Sangue Transplantação; host or cells: human plasma from healthy donors
T1 sequence (P09172 40-617 limits assumed): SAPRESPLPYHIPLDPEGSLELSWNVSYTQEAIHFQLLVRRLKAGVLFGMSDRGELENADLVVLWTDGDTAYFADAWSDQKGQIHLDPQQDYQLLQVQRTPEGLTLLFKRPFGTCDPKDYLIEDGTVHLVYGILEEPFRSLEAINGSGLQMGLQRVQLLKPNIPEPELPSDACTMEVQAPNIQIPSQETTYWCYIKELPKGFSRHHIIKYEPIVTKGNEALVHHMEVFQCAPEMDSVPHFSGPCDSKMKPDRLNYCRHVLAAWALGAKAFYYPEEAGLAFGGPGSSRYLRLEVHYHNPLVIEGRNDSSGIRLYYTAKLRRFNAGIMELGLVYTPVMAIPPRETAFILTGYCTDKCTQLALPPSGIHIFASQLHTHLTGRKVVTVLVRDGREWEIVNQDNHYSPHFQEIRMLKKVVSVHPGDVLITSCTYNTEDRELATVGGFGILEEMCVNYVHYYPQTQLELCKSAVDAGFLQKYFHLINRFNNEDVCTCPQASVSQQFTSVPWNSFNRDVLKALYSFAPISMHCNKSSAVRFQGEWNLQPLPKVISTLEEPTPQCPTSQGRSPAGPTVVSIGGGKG
Assay: Dopamine beta hydroxylase activity in human plasma
Type: biochemical
Conditions: for Plasma (0.01 μM), activity in % of control: inhibitor 0.01 μM; for Plasma (0.1 μM), activity in % of control: inhibitor 0.1 μM; for Plasma (1 μM), activity in % of control: inhibitor 1 μM
Procedure, shortened: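 Healthy-donor human plasma pre-incubated 10 min at 37° C with compound at final 10, 100 or 1000 nM in pH 5.0 acetate buffer with ascorbate, fumarate, pargyline, N-ethylmaleimide, catalase and copper sulfate. Tyramine substrate then added for 45 min; octopamine formed was isolated by SCX cartridge, periodate-converted and read at 330 nm; activity given as % control.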

O=C(Cc1[nH]c(=S)n2c1C[C@H](c1c(F)ccc(Br)c1F)C2)NCc1ccccn1 [Example 139, (R)-2-(6-(3-bromo-2,6-difluorophenyl)-3-thioxo-2,5,6,7-tetrahydro-3H-pyrrolo[1,2-c]imidazol-1-yl)-N-(pyridin-2-ylmethyl)acetamide]
Plasma (0.01 μM), activity in % of control: 77.8 % of control | Plasma (0.1 μM), activity in % of control: 20.8 % of control

O=C(Cc1[nH]c(=S)n2c1C[C@@H](c1c(F)ccc(Br)c1F)C2)N1CCOCC1 [Example 140, (S)-2-(6-(3-bromo-2,6-difluorophenyl)-3-thioxo-2,5,6,7-tetrahydro-3H-pyrrolo[1,2-c]imidazol-1-yl)-1-morpholinoethan-1-one]
Plasma (0.01 μM), activity in % of control: 73.1 % of control | Plasma (0.1 μM), activity in % of control: 26.8 % of control

O=C(Cc1[nH]c(=S)n2c1C[C@H](c1c(F)ccc(Br)c1F)C2)N1CCOCC1 [Example 141, (R)-2-(6-(3-bromo-2,6-difluorophenyl)-3-thioxo-2,5,6,7-tetrahydro-3H-pyrrolo[1,2-c]imidazol-1-yl)-1-morpholinoethan-1-one]
Plasma (0.01 μM), activity in % of control: 93.2 % of control | Plasma (0.1 μM), activity in % of control: 76.1 % of control

O=C(Cc1[nH]c(=S)n2c1[C@@H]1C[C@]1(c1c(F)ccc(Cl)c1F)C2)NCCn1cccn1 [Example 142, N-(2-(1H-pyrazol-1-yl)ethyl)-2-((5aS,6aR)-5a-(3-chloro-2,6-difluorophenyl)-3-thioxo-2,3,5,5a,6,6a-hexahydrocyclopropa[3,4]pyrrolo[1,2-c]imidazol-1-yl)acetamide]
Plasma (0.01 μM), activity in % of control: 60.0 % of control | Plasma (0.1 μM), activity in % of control: 16.2 % of control

O=C(Cc1[nH]c(=S)n2c1[C@@H]1C[C@]1(c1cc(Br)ccc1F)C2)NCC1CC1 [Example 143, 2-((5aS,6aR)-5a-(5-bromo-2-fluorophenyl)-3-thioxo-2,3,5,5a,6,6a-hexahydrocyclopropa[3,4]pyrrolo[1,2-c]imidazol-1-yl)-N-(cyclopropylmethyl)acetamide]
Plasma (0.1 μM), activity in % of control: 20.1 % of control | Plasma (1 μM), activity in % of control: 0.2 % of control

N#CCNC(=O)Cc1[nH]c(=S)n2c1[C@@H]1C[C@]1(c1cc(Br)ccc1F)C2 [Example 144, 2-((5aS,6aR)-5a-(5-bromo-2-fluorophenyl)-3-thioxo-2,3,5,5a,6,6a-hexahydrocyclopropa[3,4]pyrrolo[1,2-c]imidazol-1-yl)-N-(cyanomethyl)acetamide]
Plasma (0.1 μM), activity in % of control: 14.7 % of control | Plasma (1 μM), activity in % of control: 0.1 % of control

O=C(Cc1[nH]c(=S)n2c1[C@@H]1C[C@]1(c1cc(Br)ccc1F)C2)NCCc1ccccn1 [Example 145, 2-((5aS,6aR)-5a-(5-bromo-2-fluorophenyl)-3-thioxo-2,3,5,5a,6,6a-hexahydrocyclopropa[3,4]pyrrolo[1,2-c]imidazol-1-yl)-N-(2-(pyridin-2-yl)ethyl)acetamide]
Plasma (0.1 μM), activity in % of control: 18.2 % of control | Plasma (1 μM), activity in % of control: 2.0 % of control

CN(C)CCCNC(=O)Cc1[nH]c(=S)n2c1[C@@H]1C[C@]1(c1cc(Br)ccc1F)C2.Cl [Example 146, 2-((5aS,6aR)-5a-(5-bromo-2-fluorophenyl)-3-thioxo-2,3,5,5a,6,6a-hexahydrocyclopropa[3,4]pyrrolo[1,2-c]imidazol-1-yl)-N-(3-(dimethylamino)propyl)acetamide hydrochloride]
Plasma (0.1 μM), activity in % of control: 13.8 % of control | Plasma (1 μM), activity in % of control: 0.9 % of control

O=C(Cc1[nH]c(=S)n2c1[C@@H]1C[C@]1(c1cc(Br)ccc1F)C2)N1CCN(c2ccccn2)CC1 [Example 147, 2-((5aS,6aR)-5a-(5-bromo-2-fluorophenyl)-3-thioxo-2,3,5,5a,6,6a-hexahydrocyclopropa[3,4]pyrrolo[1,2-c]imidazol-1-yl)-1-(4-(pyridin-2-yl)piperazin-1-yl)ethan-1-one]
Plasma (0.1 μM), activity in % of control: 29.0 % of control | Plasma (1 μM), activity in % of control: 2.4 % of control

O=C(Cc1[nH]c(=S)n2c1[C@@H]1C[C@]1(c1cc(Br)ccc1F)C2)NC1CCOC1 (stereo partly drawn) [Example 148, 2-((5aS,6aR)-5a-(5-bromo-2-fluorophenyl)-3-thioxo-2,3,5,5a,6,6a-hexahydrocyclopropa[3,4]pyrrolo[1,2-c]imidazol-1-yl)-N-(tetrahydrofuran-3-yl)acetamide]
Plasma (0.1 μM), activity in % of control: 17.1 % of control | Plasma (1 μM), activity in % of control: 0.9 % of control

O=C(Cc1[nH]c(=S)n2c1[C@@H]1C[C@]1(c1c(F)ccc(Cl)c1F)C2)N1CCC(F)(F)CC1 [Example 149, 2-((5aS,6aR)-5a-(3-chloro-2,6-difluorophenyl)-3-thioxo-2,3,5,5a,6,6a-hexahydrocyclopropa[3,4]pyrrolo[1,2-c]imidazol-1-yl)-1-(4,4-difluoropiperidin-1-yl)ethan-1-one]
Plasma (0.01 μM), activity in % of control: 52.5 % of control | Plasma (0.1 μM), activity in % of control: 3.0 % of control

O=C(Cc1[nH]c(=S)n2c1[C@@H]1C[C@]1(c1c(F)ccc(Cl)c1F)C2)NCC(F)(F)F [Example 150, 2-((5aS,6aR)-5a-(3-chloro-2,6-difluorophenyl)-3-thioxo-2,3,5,5a,6,6a-hexahydrocyclopropa[3,4]pyrrolo[1,2-c]imidazol-1-yl)-N-(2,2,2-trifluoroethyl)acetamide]
Plasma (0.01 μM), activity in % of control: 64.8 % of control | Plasma (0.1 μM), activity in % of control: 17.1 % of control

O=C(Cc1[nH]c(=S)n2c1[C@@H]1C[C@]1(c1c(F)ccc(Cl)c1F)C2)NCc1cccnc1 [Example 151, 2-((5aS,6aR)-5a-(3-chloro-2,6-difluorophenyl)-3-thioxo-2,3,5,5a,6,6a-hexahydrocyclopropa[3,4]pyrrolo[1,2-c]imidazol-1-yl)-N-(pyridin-3-ylmethyl)acetamide]
Plasma (0.01 μM), activity in % of control: 73.7 % of control | Plasma (0.1 μM), activity in % of control: 20.2 % of control

O=C(Cc1[nH]c(=S)n2c1[C@@H]1C[C@]1(c1cc(Br)ccc1F)C2)NCC(F)(F)F [Example 152, 2-((5aS,6aR)-5a-(5-bromo-2-fluorophenyl)-3-thioxo-2,3,5,5a,6,6a-hexahydrocyclopropa[3,4]pyrrolo[1,2-c]imidazol-1-yl)-N-(2,2,2-trifluoroethyl)acetamide]
Plasma (0.01 μM), activity in % of control: 72.1 % of control | Plasma (0.1 μM), activity in % of control: 17.8 % of control

O=C(Cc1[nH]c(=S)n2c1[C@@H]1C[C@]1(c1cc(Br)ccc1F)C2)NC1CCC1 [Example 153, 2-((5aS,6aR)-5a-(5-bromo-2-fluorophenyl)-3-thioxo-2,3,5,5a,6,6a-hexahydrocyclopropa[3,4]pyrrolo[1,2-c]imidazol-1-yl)-N-cyclobutylacetamide]
Plasma (0.01 μM), activity in % of control: 85.5 % of control | Plasma (0.1 μM), activity in % of control: 28.4 % of control

O=C(Cc1[nH]c(=S)n2c1[C@@H]1C[C@]1(c1cc(Br)ccc1F)C2)NC1CC1 [Example 154, 2-((5aS,6aR)-5a-(5-bromo-2-fluorophenyl)-3-thioxo-2,3,5,5a,6,6a-hexahydrocyclopropa[3,4]pyrrolo[1,2-c]imidazol-1-yl)-N-cyclopropylacetamide]
Plasma (0.01 μM), activity in % of control: 89.5 % of control | Plasma (0.1 μM), activity in % of control: 38.6 % of control

CN(C(=O)Cc1[nH]c(=S)n2c1[C@@H]1C[C@]1(c1cc(Br)ccc1F)C2)C1CCCC1 [Example 155, 2-((5aS,6aR)-5a-(5-bromo-2-fluorophenyl)-3-thioxo-2,3,5,5a,6,6a-hexahydrocyclopropa[3,4]pyrrolo[1,2-c]imidazol-1-yl)-N-cyclopentyl-N-methylacetamide]
Plasma (0.01 μM), activity in % of control: 91.5 % of control | Plasma (0.1 μM), activity in % of control: 19.7 % of control

O=C(Cc1[nH]c(=S)n2c1[C@@H]1C[C@]1(c1cc(Cl)ccc1F)C2)NCc1ccccc1 [Example 156, N-benzyl-2-((5aS,6aR)-5a-(5-chloro-2-fluorophenyl)-3-thioxo-2,3,5,5a,6,6a-hexahydrocyclopropa[3,4]pyrrolo[1,2-c]imidazol-1-yl)acetamide]
Plasma (0.01 μM), activity in % of control: 88.6 % of control | Plasma (0.1 μM), activity in % of control: 40.3 % of control

O=C(Cc1[nH]c(=S)n2c1[C@@H]1C[C@]1(c1cc(Br)ccc1F)C2)N1CCOCC1 [Example 157]
Plasma (0.01 μM), activity in % of control: 84.2 % of control | Plasma (0.1 μM), activity in % of control: 24.2 % of control

O=C(Cc1[nH]c(=S)n2c1[C@@H]1C[C@]1(c1cc(Cl)ccc1F)C2)N1CCCCC1 [Example 158, 2-((5aS,6aR)-5a-(5-chloro-2-fluorophenyl)-3-thioxo-2,3,5,5a,6,6a-hexahydrocyclopropa[3,4]pyrrolo[1,2-c]imidazol-1-yl)-1-(piperidin-1-yl)ethan-1-one]
Plasma (0.01 μM), activity in % of control: 90.9 % of control | Plasma (0.1 μM), activity in % of control: 52.1 % of control

N#CCNC(=O)Cc1[nH]c(=S)n2c1C[C@H](c1c(F)ccc(Br)c1F)C2 [Example 159, (R)-2-(6-(3-bromo-2,6-difluorophenyl)-3-thioxo-2,5,6,7-tetrahydro-3H-pyrrolo[1,2-c]imidazol-1-yl)-N-(cyanomethyl)acetamide]
Plasma (0.01 μM), activity in % of control: 84.3 % of control | Plasma (0.1 μM), activity in % of control: 50.9 % of control
